Measured values from patent publication US5304474A, “Hydrophobic peptide esters and amides” (Board of Regents, The University of Texas System, priority 1991, dated 1994).
Entries after “also recorded” stand apart in the source; their conditions may differ.

Key:
[1] = system: NK cells; assay: Loss of NK cells from PBM, anti-NK (leu 11b) staining; format: cell-based, human; details: 15 minute exposure, 2 hours at 37° C. (FIG. 6)
Description: (§1) In the experiments depicted in FIG. 6, freshly isolated PBM (2.5×10^6 /ml PBS and 1g/l glucose) were incubated at room temperature with varying concentrations of Leu-Leu-OMe. After a 15 minute exposure to this compound, the cells were washed, incubated for 2 hours at 37° C. and then assessed for the percentage of remaining viable cells which were stained by anti-MP or anti-NK monoclonal antibodies. Preincubation with greater than 25-50 micromola Leu-Leu-OMe led to loss of NK cells.
(§2) Anti-MP monoclonal antibodies (63D3) and anti-NK monoclonal antibodies (leu 11b) were obtained from Becton Dickinson Monoclonal Center, lnc., Mountain View, Cal. The antibody staining and Fluorescence Activated Cell Sorter (FACS) procedure was that of Rosenberg et al. (1981) (J. Immunol. V 126, p 1473). Data are expressed as percent of antibody staining in control cells (mean±SEM, n=4).

[2] = system: hemopoietic stem cells; assay: Stem cell function: splenic 125I-UdR uptake 5 d after transfer into irradiated syngeneic recipients; format: in vivo, mice; details: 250 micro-M
Description: Bone marrow cells or marrow and spleen cell mixtures were incubated in PBS with or without 250 micro-M Leu-Leu-OMe as above and then infused into 950 cGy irradiated syngeneic recipients. 5 d later, splenic 5-iodo-2'-deoxyuridine-^125 I (^125 I-UdR) uptake was measured as previously described (15).
To assay the effects of Leu-Leu-OMe on hemopoietic stem cells, we incubated marrow or mixtures of marrow and spleen cells in PBS with or without Leu-Leu-OMe and measured splenic ^125 I-UdR uptake 5 d after transplantation into irradiated syngeneic recipients (18). […] Since human marrow obtained for use in transplantation has variable amounts of peripheral blood contamination, we also studied the stem cell function of a mixture of murine spleen and marrow incubated with Leu-Leu-OMe. […] Histological studies were conducted of spleens from irradiated mice. B6 mice were irradiated with 950 cGy and given no marrow (irradiation control), or given syngeneic bone marrow cells that had been incubated in PBS with or without 250 micro-M Leu-Leu-OMe. 5 d later spleens were examined histologically. Irradiation control spleens were sparsely populated, with no hemopoietic elements. Recipients of marrow treated with 250 micro-M Leu-Leu-OMe had the vast majority of their splenic red pulp packed with erythroblasts, but also had numerous peritrabecular areas containing megakaryocytes and granulocytic elements.

[3] = biological target: dipeptidyl peptidase I (DPPI) (Bos taurus, UniProt Q3ZCJ8); assay: Dipeptidyl peptidase I catalyzed lysis of human RBC; format: cell-based, bovine; details: FIG. 12, FIG. 13
Description: The following experiments were carried out to determine whether DPPI could generate a lytic product from Leu-Leu-OMe. In the experiment detailed in FIG. 12, ^51 Cr-labeled human erythrocytes (RBC) were incubated with varying concentrations of Leu-Leu-OMe alone or in the presence of purified bovine DPPI.
In the experiments detailed in FIG. 13, ^51 Cr-labeled RBC's were exposed to various dipeptide esters or amides in the presence or absence of purified DPPI. […] The first observation is probably related to the inability of this enzyme to catalyze transpeptidation of peptide esters containing D-stereoisomers of amino acids. The latter observations are likely to be related to the fact that polymers of Ser-Leu or Leu-Tyr are not hydrophobic and therefore unlikely to enter and disrupt cell membranes.

[4] = system: HS-Sultan; assay: 51Cr release toxicity assay; format: cell-based, human; details: broad range of concentrations
Description: (§3) HS-Sultan, a human plasma cell line (Goldblum et al. (1973) Proc. Seventh Leucocyte Culture Conference, ed by Daguilland, Acad. Press N.Y. pp 15-28), Daudi, a B lymphoblastoid cell line (Klein et al. (1968) Cancer Res. V 28, p 1300), MoLT-4, an acute lymphoblastic T-cell leukemia line (Monowada et al. (1972) J. Nat'l Canc. Inst. V 49, p 891), and U-937, a human monocyte-like cell line (Koren et al. (1979) Nature V 279, p 891) were obtained from the American Type Culture Collection, Rockville, Md. These lines as well as HEp-2 a human epidermoid carcinoma line (a generous gift of Dr. R. Sontheimer, UTHSCD); Currie, a human renal cell carcinoma line (a generous gift of Dr. M. Prager, UTHSCD); and K562, a human erythroleukemia line (a generous gift of Dr. M. Bennett, UTHSCD) were maintained in culture in medium RMPI supplemented with 10% FBS. Human dermal fibroblasts (a generous gift of Dr. T. Geppert, UTHSCD) were serially passaged in culture as well while human umbilical vein endothelial cells (a generous gift of Dr. A. Johnson, UTHSCD) were used after one subculture Epttein Barr virus (EBV) transformed B lymphoblastoid cell lines JM.6 and SM.4 (kindly provided by Dr. J. Moreno, UTHSCD) and cloned EBV transformed B cell lines SDL-G2 and D8-219 (a generous gift of Drs. L. Stein and M. Dosch, Hospital for Sick Children, Toronto, Canada) were maintained in culture in medium RPMI supplemented with 10% FBS.
(§4) In some experiments, toxicity of Leu-Leu-OMe for a variety of cell populations was assessed by ^51 Cr release In assays where cells obtained from suspension culture were to be used, cells were labeled with Na2^51 CrO4 (ICN, Plainview, N.Y.) for 60-90 minutes at 37° C. and then washed three times. Cells were then suspended in PBS (2.5×10^6 /ml) and incubated in microtiter plates, 50 microL/well with indicated concentrations of Leu-Leu-OMe for 15 minutes at room temperature. […] Following ^51 Cr labeling, wells were thoroughly washed and varying concentrations of Leu-Leu-OMe added in 50 microL PBS and the plates incubated for 15 minutes at room temperature.
(§5) Following such initial serum-free incubations, 200 microL/well of medium RPMI containing 10% FBS were added and the plates incubated for another 4 hours prior to removal of 100 microliters of supernatant. Radioactivity in the supernatant was measured in an auto-gamma scintillation spectrometer (Packard Instrument Co., Downers Grove, Ill.). The percent specific release was calculated from the formula: [formula] in which maximal release refers to cpm obtained in wells containing 50% lysing agent (American Scientific Products, McGraw Park, Ill.) and spontaneous release refers to cpm released by cells incubated in control medium in the absence of Leu-Leu-OMe or the lysing agent. Only experiments in which spontaneous release was […] were used for subsequent data interpretation.
(§6) In developing the data expressed in FIG. 7, cells (2.5×10^6 /ml) were exposed to the indicated concentrations of Leu-Leu-OMe for 15 minutes at room temperature, then specific ^51 Cr release during the next four hours was assessed. Data for the EBV transformed lines JM.6, SDL-G2, D8-219, and SM.4, respectively, are shown in order from top to bottom.

[5] = system: K562; assay: 51Cr release toxicity assay; format: cell-based, human
Description: as §3, §4, §5, §6

[6] = system: Daudi; assay: 51Cr release toxicity assay; format: cell-based, human; details: broad range of concentrations
Description: as §3, §4, §5, §6

[7] = system: mononuclear phagocytes (MP); assay: Loss of MP from PBM, anti-MP (63D3) staining; format: cell-based, human; details: 15 minute exposure, 2 hours at 37° C. (FIG. 6)
Description: as §1, §2

dipeptidyl peptidase I (DPPI), sequence (Q3ZCJ8 231-394 limits assumed): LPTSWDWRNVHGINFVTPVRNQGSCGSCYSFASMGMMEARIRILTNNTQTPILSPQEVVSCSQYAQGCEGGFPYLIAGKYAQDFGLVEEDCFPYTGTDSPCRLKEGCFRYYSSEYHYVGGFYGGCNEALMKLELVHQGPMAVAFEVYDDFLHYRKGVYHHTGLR
dipeptidyl peptidase I (DPPI), sequence (Q3ZCJ8 25-134 limits assumed): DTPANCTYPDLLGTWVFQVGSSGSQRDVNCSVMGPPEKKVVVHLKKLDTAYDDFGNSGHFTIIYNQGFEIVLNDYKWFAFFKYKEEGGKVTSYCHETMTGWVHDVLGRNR
dipeptidyl peptidase I (DPPI), sequence (Q3ZCJ8 395-463 limits assumed): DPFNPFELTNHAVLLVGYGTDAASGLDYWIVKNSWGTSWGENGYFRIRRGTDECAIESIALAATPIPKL

## COC(=O)[C@H](CC(C)C)NC(=O)[C@@H](N)CC(C)C [Leu-Leu-OMe, L-leucyl-L-leucine methyl ester]
[1]
  preincubation concentration leading to loss of NK cells: 25 to 50 µM
[2]
  effect on stem cell function, in words: had no deleterious effect on this measure of stem cell function
[3]
  RBC lysis in the presence of purified DPPI, in words: RBC lysis occurs
[4]
  51Cr release and proliferative rate: no significant ^51 Cr release or alteration in subsequent proliferative rate
[5]; 100 micromolar or lower
  51Cr release and proliferative rate: no significant ^51 Cr release or alteration in subsequent proliferative rate
[5]; higher than 100 micromolar
  51Cr release and proliferative capacity: modest amounts of ^51 Cr release and partial loss of proliferative capacity
[6]
  51Cr release and proliferative rate: no significant ^51 Cr release or alteration in subsequent proliferative rate
[7]
  loss of MP from PBM, in words: did not deplete MP from PBM; also recorded: higher concentrations of Leu-Leu-OMe caused loss of MP
